Experimental data published in patent US9365576B2, “Pyrrolopyrrolidinone compounds” (Novartis AG, priority 2012, dated 2016).

Legend:
Type in all cases: binding
[1] = molecular target: human MDM4 protein (amino acids 2-185) (Homo sapiens (Human), UniProt O15151); experiment: TR-FRET assay, p53-MDM4 Assay 1; details: 2.5 nM MDM4-biotinylated, 10 nM Cy5-p53 peptide
Experimental: (§1) The inhibition of p53-MDM2 and p53-MDM4 interactions is measured by time resolved fluorescence energy transfer (TR-FRET). Fluorescence energy transfer (or Foerster resonance energy transfer) describes an energy transfer between donor and acceptor fluorescent molecules. For this assay, human MDM2 protein (amino acids 2-188) and human MDM4 protein (amino acids 2-185), tagged with a C-terminal biotin moiety, are used in combination with a Europium labeled streptavidin (Perkin Elmer, Inc., Waltham, Mass., USA) serving as the donor fluorophore. The p53 derived, Cy5 labeled peptide Cy5-TFSDLWKLL (p53 aa18-26) is the energy acceptor. Upon excitation of the donor molecule at 340 nm, binding interaction between MDM2 or MDM4 and the p53 peptide induces energy transfer and enhanced response at the acceptor emission wavelength at 665 nm. Disruption of the formation of the p53-MDM2 or p53-MDM4 complex due to an inhibitor molecule binding to the p53 binding site of MDM2 or MDM4 results in increased donor emission at 620 nm. The ratiometric FRET assay readout is calculated from the raw data of the two distinct fluorescence signals measured in time resolved mode (fluorescence 665 nm/fluorescence 620 nm×1000).
(§2) After addition of 1.25 nM MDM2-biotinylated or 2.5 nM MDM4-biotinylated (internal preparations), and 0.625 nM Europium labeled streptavidin (Perkin Elmer), the solution is pre-incubated for 15 minutes at room temperature, then 10 nM Cy5-p53 peptide (internal preparation) is added before an incubation at room temperature for 15 minutes prior to reading the plate. For measurement of samples, a Victor II microplate reader (Perkin Elmer) is used with the following settings: Excitation 340 nm, Emission Donor 620 nm and Emission Acceptor 665 nm. IC50 values are calculated by curve fitting using XLfit. If not specified, reagents are purchased from Sigma-Aldrich Chemie GmBH, Buchs, Switzerland.
(§3) This assay was used to evaluate compounds displaying inhibition of p53-MDM2 interaction and p53-MDM4 interaction at IC50s of 0.005 to 50 μM (p53-MDM2 Assay 1 and p53-MDM4 Assay 1, respectively). For selected compounds displaying IC50s between […] on MDM2, a slightly modified assay is used with the following adaptations: 0.1 nM MDM2, 0.1 nM Europium labeled streptavidin and Tecan genios Pro is used as a microplate reader for the fluorescence measurements (p53-MDM2 Assay 2).

[2] = molecular target: T1, human MDM2 protein (amino acids 2-188) (Homo sapiens (Human), UniProt Q00987); experiment: TR-FRET assay, p53-MDM2 Assay 1; details: 1.25 nM MDM2-biotinylated, 10 nM Cy5-p53 peptide
Experimental: as §1, §2, §3

[3] = molecular target: T1, human MDM2 protein (amino acids 2-188); experiment: TR-FRET assay, p53-MDM2 Assay 2 (modified); details: TR-FRET; 0.1 nM MDM2, 0.1 nM Europium labeled streptavidin, Tecan genios Pro reader; read-out: IC50 p53-MDM2 Assay 2
Outline: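 IC50 values were curve-fitted from the time-resolved 665/620 nm emission ratio after 340 nm excitation. The assay combined 0.625 nM europium-streptavidin donor with 1.25 nM C-terminally biotinylated MDM2 2–188 (15 min, RT), followed by 15 min with 10 nM Cy5-labeled p53 18–26 acceptor peptide.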

Chain of human MDM4 protein (amino acids 2-185) (O15151 2-185): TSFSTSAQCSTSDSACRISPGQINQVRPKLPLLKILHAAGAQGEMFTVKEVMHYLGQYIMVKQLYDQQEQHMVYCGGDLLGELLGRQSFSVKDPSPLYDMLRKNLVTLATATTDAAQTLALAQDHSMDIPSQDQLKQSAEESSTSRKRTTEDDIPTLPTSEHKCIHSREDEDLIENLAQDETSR
T1 sequence (Q00987 2-188): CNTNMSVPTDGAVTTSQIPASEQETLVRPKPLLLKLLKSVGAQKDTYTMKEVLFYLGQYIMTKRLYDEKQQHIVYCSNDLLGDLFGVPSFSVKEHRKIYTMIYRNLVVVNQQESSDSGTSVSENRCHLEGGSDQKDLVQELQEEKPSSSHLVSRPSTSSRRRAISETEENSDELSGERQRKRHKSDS

Structure (SMILES) | IC50 [1] | IC50 [2] | IC50 [3]
COc1ccc(C(=O)O)cc1-c1cc2c(n1C(C)C)C(c1ccc(Cl)cc1)N([C@H]1CC[C@H](O)CC1)C2=O (stereo partly drawn) [Example 65, 3-[6-(4-Chloro-phenyl)-5-(trans-4-hydroxy-cyclohexyl)-1-isopropyl-4-oxo-1,4,5,6-tetrahydro-pyrrolo[3,4-b]pyrrol-2-yl]-4-methoxy-benzoic acid] | 8.79 µM | 12.3 nM | 4.91 nM
COc1nc(N)ncc1-c1cc2c(n1C(C)C)C(c1ccc(Cl)cc1)N([C@H]1CC[C@H](O)CC1)C2=O (stereo partly drawn) [Example 68, 2-(2-Amino-4-methoxy-pyrimidin-5-yl)-6-(4-chloro-phenyl)-5-(trans-4-hydroxy-cyclohexyl)-1-isopropyl-5,6-dihydro-1H-pyrrolo[3,4-b]pyrrol-4-one] | 7.86 µM | 12.6 nM | 14.2 nM
COc1nc(N(C)C)ncc1-c1cc2c(n1C(C)C)C(c1ccc(Cl)cn1)N(c1cccc(Cl)c1F)C2=O (stereo not shown) [Example 234, 5-(3-Chloro-2-fluorophenyl)-6-(5-chloropyridin-2-yl)-2-(2-(dimethylamino)-4-methoxypyrimidin-5-yl)-1-isopropyl-5,6-dihydropyrrolo[3,4-b]pyrrol-4(1H)-one] |  |  | 0.657 nM
COc1ncncc1-c1cc2c(n1C(C)C)C(c1ccc(C#N)cc1)N(c1cc(Cl)c(=O)n(C)c1)C2=O (stereo not shown) [Example 236, 4-(5-(5-Chloro-1-methyl-6-oxo-1,6-dihydropyridin-3-yl)-1-isopropyl-2-(4-methoxypyrimidin-5-yl)-4-oxo-1,4,5,6-tetrahydropyrrolo[3,4-b]pyrrol-6-yl)benzonitrile] |  |  | 2.98 nM
COc1ncc(-c2cc3c(n2C(C)C)[C@H](c2ccc(C#N)c(F)c2)N(c2cc(Cl)c(=O)n(C)c2)C3=O)c(OC)n1 [Example 237, (S)-4-(5-(5-Chloro-1-methyl-6-oxo-1,6-dihydropyridin-3-yl)-2-(2,4-dimethoxypyrimidin-5-yl)-1-isopropyl-4-oxo-1,4,5,6-tetrahydropyrrolo[3,4-b]pyrrol-6-yl)-2-fluorobenzonitrile] |  |  | 0.107 nM
COc1ncc(-c2cc3c(n2C(C)C)[C@@H](c2ccc(C#N)c(F)c2)N(c2cc(Cl)c(=O)n(C)c2)C3=O)c(OC)n1 [Example 238, (R)-4-(5-(5-Chloro-1-methyl-6-oxo-1,6-dihydropyridin-3-yl)-2-(2,4-dimethoxypyrimidin-5-yl)-1-isopropyl-4-oxo-1,4,5,6-tetrahydropyrrolo[3,4-b]pyrrol-6-yl)-2-fluorobenzonitrile] |  |  | 126 nM
COc1ncc(-c2cc3c(n2C2CC2)C(c2ccc(Cl)cc2)N(c2cc(C)c(=O)n(C)c2)C3=O)c(OC)n1 (stereo not shown) [Example 240, 6-(4-Chlorophenyl-1)-1-cyclopropyl-2-(2,4-dimethoxypyrimidin-5-yl)-5-(1,5-dimethyl-6-oxo-1,6-dihydropyridin-3-yl)-5,6-dihydropyrrolo[3,4-b]pyrrol-4(1H)-one] | 77.6 µM | 33.3 nM | 
COc1ncc(-c2cc3c(n2C2CC2)C(c2ccc(Cl)cc2)N(c2cc(C)c(=O)n(C)c2)C3=O)cn1 (stereo not shown) [Example 241, 6-(4-Chlorophenyl)-1-cyclopropyl-5-(1,5-dimethyl-6-oxo-1,6-dihydropyridin-3-yl)-2-(2-methoxypyrimidin-5-yl)-5,6-dihydropyrrolo[3,4-b]pyrrol-4(1H)-one] | > 100 µM | 3920 nM | 
Cc1cc(N2C(=O)c3cc(-c4ccn(C)c(=O)c4)n(C4CC4)c3C2c2ccc(Cl)cc2)cn(C)c1=O (stereo not shown) [Example 242, 6-(4-Chlorophenyl)-1-cyclopropyl-5-(1,5-dimethyl-6-oxo-1,6-dihydropyridin-3-yl)-2-(1-methyl-2-oxo-1,2-dihydropyridin-4-yl)-5,6-dihydropyrrolo[3,4-b]pyrrol-4(1H)-one] | > 100 µM | 2040 nM | 

Second part, the molecule after the results:

IC50 [1] | IC50 [2] | IC50 [3] | Structure (SMILES)
27.8 µM | 9.5 nM |  | COc1ccccc1-c1cc2c(n1C(C)C)C(c1ccc(Cl)cc1C)N(c1cccc(Cl)c1F)C2=O (stereo not shown) [Example 1, 5-(3-Chloro-2-fluoro-phenyl)-6-(4-chloro-2-methyl-phenyl)-1-isopropyl-2-(2-methoxy-phenyl)-5,6-dihydro-1H-pyrrolo[3,4-b]pyrrol-4-one]
2.9 µM | 2.9 nM | 0.757 nM | CNC(=O)c1ccc(OC)c(-c2cc3c(n2C(C)C)C(c2ccc(Cl)cc2C)N(c2cccc(Cl)c2F)C3=O)c1 (stereo not shown) [Example 2, 3-[5-(3-Chloro-2-fluoro-phenyl)-6-(4-chloro-2-methyl-phenyl)-1-isopropyl-4-oxo-1,4,5,6-tetrahydro-pyrrolo[3,4-b]pyrrol-2-yl]-4-methoxy-N-methyl-benzamide]
54.2 µM | 6 nM |  | COc1ccc(F)cc1-c1cc2c(n1C(C)C)C(c1ccc(Cl)cc1C)N(c1cccc(Cl)c1F)C2=O (stereo not shown) [Example 3, 5-(3-Chloro-2-fluoro-phenyl)-6-(4-chloro-2-methyl-phenyl)-2-(5-fluoro-2-methoxy-phenyl)-1-isopropyl-5,6-dihydro-1H-pyrrolo[3,4-b]pyrrol-4-one]
0.507 µM | 0.6 nM | 0.119 nM | CNC(=O)c1ccc(OC)c(-c2cc3c(n2C(C)C)[C@H](c2ccc(Cl)cc2C)N(c2cccc(Cl)c2F)C3=O)c1 [Example 7, 3-[(S)-5-(3-Chloro-2-fluoro-phenyl)-6-(4-chloro-2-methyl-phenyl)-1-isopropyl-4-oxo-1,4,5,6-tetrahydro-pyrrolo[3,4-b]pyrrol-2-yl]-4-methoxy-N-methyl-benzamide]
4.03 µM | 0.6 nM | 0.298 nM | COc1ccccc1-c1cc2c(n1C(C)C)C(c1ccc(Cl)cc1)N(c1cc(Cl)ccc1C)C2=O (stereo not shown) [Example 9, 5-(5-Chloro-2-methyl-phenyl)-6-(4-chloro-phenyl)-1-isopropyl-2-(2-methoxy-phenyl)-5,6-dihydro-1H-pyrrolo[3,4-b]pyrrol-4-one]
0.478 µM | 0.9 nM | 0.116 nM | CNC(=O)c1ccc(OC)c(-c2cc3c(n2C(C)C)C(c2ccc(Cl)cc2)N(c2cc(Cl)ccc2C)C3=O)c1 (stereo not shown) [Example 10, 3-[5-(5-Chloro-2-methyl-phenyl)-6-(4-chloro-phenyl)-1-isopropyl-4-oxo-1,4,5,6-tetrahydro-pyrrolo[3,4-b]pyrrol-2-yl]-4-methoxy-N-methyl-benzamide]
0.264 µM | 0.5 nM | 0.094 nM | CNC(=O)c1ccc(OC)c(-c2cc3c(n2C(C)C)[C@H](c2ccc(Cl)cc2C)N(c2cc(Cl)ccc2C)C3=O)c1 [Example 32, 3-[(S)-5-(5-Chloro-2-methyl-phenyl)-6-(4-chloro-2-methyl-phenyl)-1-isopropyl-4-oxo-1,4,5,6-tetrahydro-pyrrolo[3,4-b]pyrrol-2-yl]-4-methoxy-N-methyl-benzamide]
0.327 µM | 1.1 nM | 0.125 nM | COc1ccc(C(=O)NOCCO)cc1-c1cc2c(n1C(C)C)C(c1ccc(Cl)cc1)N(c1cc(Cl)ccc1C)C2=O (stereo not shown) [Example 37, 3-[5-(5-Chloro-2-methyl-phenyl)-6-(4-chloro-phenyl)-1-isopropyl-4-oxo-1,4,5,6-tetrahydro-pyrrolo[3,4-b]pyrrol-2-yl]-N-(2-hydroxy-ethoxy)-4-methoxy-benzamide]
 |  | 7.16 nM | COc1ncc(-c2cc3c(n2C(C)C)C(c2ccc(Cl)cn2)N(c2cc(Cl)ccc2C)C3=O)c(OC)n1 (stereo not shown) [Example 235, 5-(5-Chloro-2-methylphenyl)-6-(5-chloropyridin-2-yl)-2-(2,4-dimethoxypyrimidin-5-yl)-1-isopropyl-1-5,6-dihydropyrrolo[3,4-b]pyrrol-4(1H)-one]
 |  | 1.16 nM | COc1ncc(-c2cc3c(n2C(C)C)C(c2ccc(Cl)cc2)N(c2cc(C)cn(C)c2=O)C3=O)c(OC)n1 (stereo not shown) [Example 239, 6-(4-Chlorophenyl-1)-2-(2,4-dimethoxypyrimidin-5-yl)-5-(1,5-dimethyl-2-oxo-1,2-dihydropyridin-3-yl)-1-isopropyl-5,6-dihydropyrrolo[3,4-b]pyrrol-4(1H)-one]
